According to patent US20250154135A1, “M-CHOLINE RECEPTOR AGONIST COMPOUND, PREPARATION METHOD THEREFOR AND USE THEREOF” (NANJING GRITPHARMA CO., LTD., priority 2022, published 2025):
Several values for one entry are separate records, joined by “and”; a condition that tells them apart may be missing. Equal values may be shown once. Where a name gives a salt, the structure may show the parent alone. Each block holds one compound with its values, some of them ahead of it.

What was measured:
[1] = system: rabbit pupil; assay: Rabbit pupil constriction after single eye drop (Test Example 1); format: in vivo, New Zealand rabbit; conditions: rabbits, Test Example 1 solutions
Method: Except for group 5), the eye drop solutions of groups 1) to 12) described above contained an equimolar concentration of pilocarpine. The molar concentration of pilocarpine in the eye drop solution of group 5) was half of the molar concentration of pilocarpine in the solutions of the other 11 groups.
The effects of the eye drop solutions of groups 1) to 12) prepared above on rabbit pupil constriction and irritation were tested separately.
• Species and strain: New Zealand rabbit • Grade: normal • Source: Qinglongshan Animal Breeding Farm, Jiangning District, Nanjing • Production license No.: SCXK (Su) 2016-0008 • Animal age: about 110 days old at the time of administration • Animal body weight: about 2.5-3.5 kg at the time of administration • Animal sex: all male • Feed: rabbit pellet feed • Housing conditions: air-conditioned room, with a temperature of 18-26° C. and a relative humidity of 40%-80%.
• Digital vernier caliper: specification: 0-150 mm; measurement accuracy: 0.01 mm; manufacturer: Guilin Guanglu Measuring Instrument Co., Ltd.
(§1) Each rabbit was subjected to eye drop administration in the left eye (using a pipette), with an administration volume of 100 μL.
• Number of animals: for JQ series compounds, 6 rabbits per compound; for compounds 1, 2 and 4, 5 rabbits per compound. • Administration schedule: single administration. Measurement indicators and time points: • for JQ series compounds, the pupil diameter of the left eye of the rabbits was measured at time points of −0.5 h (i.e., half an hour before administration), 5 min, 10 min, 15 min, 0.5 h, 3 h and 4 h relative to administration, with the measurement repeated 3 times for each rabbit at each time point (measurement time points were extended if necessary); • for compounds 1, 2 and 4, the pupil diameter of the left eye of the rabbits was measured at time points of 3 h and 4 h relative to administration, with the measurement repeated 3 times for each rabbit at each time point (measurement time points were extended if necessary).
Percentage change in pupil diameter (%) after administration=(pupil diameter after administration−pupil diameter before administration)/pupil diameter before administration×100%
The measurement result for each rabbit at each time point was represented by the average value of three measurements.

[2] = system: rabbit pupil; assay: Rabbit pupil diameter change with other pilocarpine salts (Test Example 2); format: in vivo; conditions: for Percentage change in pupil diameter: average value ± SD; for miosis effect on rabbit pupils 3 h after administration: Table 2-1 solutions, equimolar pilocarpine
Source text: Pilocarpine nitrate: with a molecular weight of 271.27 and a purity of 98%, from Nanjing Jiqun Pharmaceutical Technology Co., Ltd., prepared into a 1.38% solution using normal saline. Pilocarpine salicylate: with a molecular weight of 346.24 and a purity of 99.73%, from Nanjing Jiqun Pharmaceutical Technology Co., Ltd., prepared into a 1.76% solution using normal saline. Pilocarpine malate: with a molecular weight of 342.21 and a purity of 99.72%, from Nanjing Jiqun Pharmaceutical Technology Co., Ltd., prepared into a 1.74% solution using normal saline. Pilocarpine maleate: with a molecular weight of 324.19 and a purity of 99.76%, from Nanjing Jiqun Pharmaceutical Technology Co., Ltd., prepared into a 1.65% solution using normal saline. Pilocarpine fumarate: with a molecular weight of 324.19 and a purity of 99.74%, from Nanjing Jiqun Pharmaceutical Technology Co., Ltd., prepared into a 1.65% solution using normal saline. Pilocarpine lipoate: with a molecular weight of 414.58 and a purity of 99.56%, from Nanjing Jiqun Pharmaceutical Technology Co., Ltd., prepared into a 2.11% solution using normal saline. Note: The concentrations of the compounds were different, but they all contained an equimolar amount of pilocarpine. Each rabbit in each group was subjected to single eye drop administration in the left eye, with an administration volume of 100 μL. […] The entire measurement process was completed by the same person.

[3] = system: rabbit eyes; assay: Eye irritation in rabbits (Test Example 2); format: in vivo; conditions: 2.11% solution
[4] = system: rabbit pupil; assay: Rabbit pupil diameter change, pilocarpine p-toluate at different concentrations (Test Example 3); format: in vivo; conditions: 1.25%
Method: Under the condition of normal saline, the onset time, strength of effect, duration of effect, and irritation of 1.25% pilocarpine hydrochloride and different concentrations (0.88%, 1.75%, 3.50%) of pilocarpine p-toluate were tested.
as §1
Number of animals: 6 rabbits per compound.
Administration schedule: single administration.
• the pupil diameter of the left eye of the rabbits was measured at time points of −0.5 h (i.e., half an hour before administration), 5 min, 10 min, 15 min, 0.5 h, 3 h and 4 h relative to administration, with the measurement performed 3 times for each rabbit at each time point.

[5] = Stability tests on compound starting materials (HPLC related substances); format: physicochemical; conditions: starting material
Method: Samples: compound 1, compound 2 and pilocarpine hydrochloride starting material solid particles.
High-temperature test: 1 g of each of compound 1, compound 2 and pilocarpine hydrochloride starting materials were taken and placed in an open container inside a constant temperature device at 40° C.; samples were taken at time points of day 0 and day 5, and then tested according to the key stability examination items. The stability of the active pharmaceutical ingredient itself and the trend of changes in stability under the conditions of influencing factor tests were observed.
Strong light irradiation test: 1 g of each of compound 1, compound 2 and pilocarpine hydrochloride starting materials were taken and placed in an open container inside a light irradiation box, with the illumination set at 4500 lx±500 lx; samples were taken at time points of day 0 and day 5, and then tested according to the key stability examination items.
High-humidity test: 1 g of each of compound 1, compound 2 and pilocarpine hydrochloride starting materials was taken and placed in an open container inside a constant humidity closed container at 25° C. and with a relative humidity of 75%±5%; samples were taken at day 0 and day 5, and then tested according to the requirements of the key stability examination items.
According to the records in the European Pharmacopoeia (EP), the key related substances to be examined for pilocarpine include: impurity A isopilocarpine (Z-A), impurity B pilocarpic acid (Z-B), and impurity C isopilocarpic acid (Z-C). The samples taken at different time points from the above high-temperature test, strong light irradiation test and high-humidity test were separately tested using high-performance liquid chromatography to observe the trend of changes in stability under the conditions of the influencing factor tests.
The related substances were determined according to the high-performance liquid chromatography (General Chapter 0512, Chinese Pharmacopoeia, Volume IV, 2020 Edition).
Test sample solution: an appropriate amount of each test sample was precisely weighed, dissolved in water, and diluted to prepare a solution containing 1 mg of test sample per 1 mL.
Chromatographic conditions: octadecyl bonded silica gel was used as a filler [kromasil 100-5-C18 column (4.0 mm×[…]) or a chromatographic column with equivalent performance], 0.679 g/L tetrabutylammonium dihydrogen phosphate-methanol-acetonitrile (885:55:60) (adjusted to pH 7.7 with dilute aqueous ammonia) was used as mobile phase A, and acetonitrile-water (80:20) was used as mobile phase B; gradient elution was performed according to Table 6-1, with a column temperature of 30° C., a flow rate of 1.0 mL/min, a detection wavelength of 220 nm, and a sample injection volume of 20 μL.

[6] = Light-5 days (4500 lx), hydrochloride
[7] = RH 75%-5 days, 25° C., hydrochloride
[8] = drug concentration 1.65%, 0.5 h

Compound: CC[C@@H]1C(=O)OC[C@@H]1Cc1cncn1C [Compound 4]
pupil constriction (miosis) effect at 3 h after administration [1]: still showed miosis effect

Compound: CC[C@@H]1C(=O)OC[C@@H]1Cc1cncn1C.O=C(O)CCCCC1CCSS1 [Pilocarpine lipoate]
Percentage change in pupil diameter ([2]; drug concentration 2.11%, 0.5 h): −40.69 ± 2.68%
Percentage change in pupil diameter ([2]; drug concentration 2.11%, 3 h): −3.11 ± 2.38%
eye irritation on administration [3]: caused significant irritation and noticeable hyperemia

Compound: CC[C@@H]1C(=O)OC[C@@H]1Cc1cncn1C [Pilocarpine nitrate]
miosis effect on rabbit pupils 3 h after administration [2]: substantially no miosis effect

Compound: CCC1C(=O)OCC1Cc1cncn1C.O=C(O)c1ccccc1O (stereo not shown) [Pilocarpine salicylate]
miosis effect on rabbit pupils 3 h after administration [2]: substantially no miosis effect
Percentage change in pupil diameter ([2]; drug concentration 1.76%, 0.5 h): −30.12 ± 4.47%
Percentage change in pupil diameter ([2]; drug concentration 1.76%, 3 h): 2.91 ± 1.07%

(Z-C) impurity C isopilocarpic acid ([5]; 40° C.-5 days): 0%
Maximum single impurity ([5]; 40° C.-5 days): 0%
(Z-A) impurity A isopilocarpine ([5]; 40° C.-5 days, hydrochloride): 0.248%
(Z-B) impurity B pilocarpic acid ([5]; 40° C.-5 days, hydrochloride): 0%
Total impurity ([5]; 40° C.-5 days, hydrochloride): 0.248%
(Z-B) impurity B pilocarpic acid ([5]; Day 0): 0%
(Z-C) impurity C isopilocarpic acid ([5]; Day 0): 0%
Maximum single impurity ([5]; Day 0): 0%
(Z-A) impurity A isopilocarpine ([5]; Day 0, hydrochloride): 0.197%
Total impurity ([5]; Day 0, hydrochloride): 0.197%
(Z-C) impurity C isopilocarpic acid ([5]; Light-5 days (4500 lx)): 0%
Maximum single impurity ([5]; Light-5 days (4500 lx)): 0%
(Z-A) impurity A isopilocarpine [5, 6]: 0.248%
(Z-B) impurity B pilocarpic acid [5, 6]: 0%
Total impurity [5, 6]: 0.248%
(Z-C) impurity C isopilocarpic acid ([5]; RH 75%-5 days, 25° C.): 0%
(Z-A) impurity A isopilocarpine [5, 7]: 0.259%
(Z-B) impurity B pilocarpic acid [5, 7]: 1.641%
Maximum single impurity [5, 7]: 0.123%
Total impurity [5, 7]: 2.023%
Compound: CC[C@@H]1C(=O)OC[C@@H]1Cc1cncn1C [pilocarpine hydrochloride, reference compound]
Percentage change in pupil diameter ([4]; 5 min, average of 6 rabbits): −7.81%
Percentage change in pupil diameter ([4]; 5 min, individual rabbit, hydrochloride): −6.28% and −7.23% and −8.93% and −6.51% and −15.75% and −2.17%
Percentage change in pupil diameter ([4]; 10 min, average of 6 rabbits): −29.35%
Percentage change in pupil diameter ([4]; 10 min, individual rabbit, hydrochloride): −29.40% and −32.93% and −28.98% and −26.64% and −36.43% and −21.69%
Percentage change in pupil diameter ([4]; 15 min, average of 6 rabbits): −35.33%
Percentage change in pupil diameter ([4]; 15 min, individual rabbit, hydrochloride): −40.68% and −36.99% and −33.54% and −33.71% and −42.10% and −24.95%
Percentage change in pupil diameter ([4]; 0.5 h, average of 6 rabbits): −34.59%
Percentage change in pupil diameter ([4]; 0.5 h, individual rabbit, hydrochloride): −36.45% and −36.62% and −38.14% and −32.89% and −39.82% and −23.64%
Percentage change in pupil diameter ([4]; 3 h, average of 6 rabbits): −3.13%
Percentage change in pupil diameter ([4]; 3 h, individual rabbit, hydrochloride): 4.54% and −0.58% and 0.03% and −6.71% and −16.22% and 0.16%
Percentage change in pupil diameter ([4]; 4 h, average of 6 rabbits): 0.25%
Percentage change in pupil diameter ([4]; 4 h, individual rabbit, hydrochloride): −0.15% and −1.79% and 2.79% and 2.49% and −2.39% and 0.54%
miosis effect on rabbit pupils 3 h after administration [2]: substantially no miosis effect
maximum percentage change in pupil diameter [1]: around 35%
pupil constriction (miosis) effect at 3 h after administration ([1]; hydrochloride): substantially no pupil constriction effect

Compound: Pilocarpine fumarate
miosis effect on rabbit pupils 3 h after administration [2]: substantially no miosis effect
Percentage change in pupil diameter [2, 8]: −22.09 ± 6.44%
Percentage change in pupil diameter ([2]; drug concentration 1.65%, 3 h): −1.00 ± 1.51%

Compound: Pilocarpine malate
miosis effect on rabbit pupils 3 h after administration [2]: substantially no miosis effect
Percentage change in pupil diameter ([2]; drug concentration 1.74%, 0.5 h): −27.71 ± 4.98%
Percentage change in pupil diameter ([2]; drug concentration 1.74%, 3 h): 0.07 ± 2.49%

Compound: Pilocarpine maleate
miosis effect on rabbit pupils 3 h after administration [2]: substantially no miosis effect
Percentage change in pupil diameter [2, 8]: −27.53 ± 4.42%
Percentage change in pupil diameter ([2]; drug concentration 1.65%, 3 h): −1.52 ± 6.38%
